Measured values from patent publication US12540117B2, “Aniline compound used as RORγ regulator” (SHANGHAI LITEDD CO., LTD., priority 2020, dated 2026).

Legend:
RORγt = target: T1, RORγt (Homo sapiens, UniProt P51449); assay: In vitro luciferase reporter assay of RORγt inhibition (GAL4-RORγ-LBD in HEK293T); conditions: for Emax: HEK-293T; for Emax / Emax %: relative maximum inhibition rate relative to AZD-0284 at 10 μM; for IC50: IC50, RORγt luciferase reporter gene, HEK293T
T1 sequence (P51449 269-508 limits assumed): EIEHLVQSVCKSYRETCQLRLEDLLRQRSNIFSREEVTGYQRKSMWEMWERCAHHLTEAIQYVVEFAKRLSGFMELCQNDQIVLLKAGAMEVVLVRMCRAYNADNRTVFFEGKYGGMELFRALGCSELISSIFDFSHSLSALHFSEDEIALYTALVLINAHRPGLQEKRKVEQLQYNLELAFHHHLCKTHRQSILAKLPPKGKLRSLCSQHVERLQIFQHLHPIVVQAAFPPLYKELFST
From the text: The RORγ-LBD coding sequence was inserted into pBIND plasmid (Promega, E1581). The expression vector and a reporter vector (pGL4.35 carrying a stably integrated luciferase reporter gene driven by GAL4 promoter) were co-expressed in HEK293T host cells. When the inhibitor binds to the corresponding chimeric receptor, the chimeric receptor binds to the GAL4 binding site on the reporter gene carrier and inhibits reporter gene expression. The inhibition activity of the compounds on RORγ was determined according to the intensity of the chemiluminescence signal.
2.2 Cell Transfection • a) Balancing the Trans-IT transfection reagent at room temperature; • b) Adding 20 μl of the transfection reagent and 600 μl of Opti-MEM™ medium without contacting the tube wall, mixing uniformly through blowing and pipetting by a pipette gun, and allowing to stand at room temperature for 5 minutes; • c) Adding 10 μg of the plasmid to the transfection reagent (see Step 2.2.b), and allowing to stand at room temperature for 20 minutes; • Plasmids: 5 μg of pBIND-RORγ and 5 μg of pGL4.35 plasmids were respectively added therein; • d) Adding the mixed DNA transfection reagent to a 100 mm cell culture dish (see Step 2.1); • e) Placing the dish in an incubator at 37° C. and 5% CO2 for 5 h. […] Calculation of % Inhibition
[formula] • RLUcmpd: fluorescence value of test compounds • RLUpositive: average value of positive control • RLUvehicle: average value of negative control
IC50s of the compounds were calculated by fitting the % Inhibition and the logarithm values of the compound concentration using Graphad 8.0.

[1] = Pharmacokinetic (PK) assay in mice; assay type: in vivo, C57BL/6 mice
Experimental: The PK of each compound was determined as follows: 6 C57BL/6 mice (obtained from Shanghai Lingchang Biotechnology Co., Ltd.) were divided into two groups with 3 in each group. One group was administered intravenously at a dose of 1 mg/kg in the vehicle of 5% DMSO/95% (20% Captisol); the other group was administered by oral gavage at a dose of 5 mg/kg in the vehicle of 0.5% CMC-Na/0.5% Tween 80. Blood samples were collected from saphenous vein of lower leg in each group at 0, 0.083, 0.25, 0.5, 1, 2, 4, 6, 8 and 24 h after administration. Approximately 40 μL of the blood samples were collected into anticoagulant tubes containing EDTA-K2 Immediately after collection, the tubes were inverted at least 5 times to ensure uniform mixing, and then placed on ice. The blood samples collected at each time point were centrifuged at 4° C., 8000 rpm for 5 minutes to obtain plasma. Another 1.5 mL centrifuge tube was marked with the compound name, animal number, and time point, and the plasma was transferred to this tube. The plasma was stored at −80° C. until analysis.
Compound concentrations in the plasma were determined by UPLC-MS/MS method, and the pharmacokinetic parameters were calculated from the obtained data by Phoenix WinNolin 6.4 pharmacokinetic software.

[2] = C57BL/6, mouse, plasma, IV, 1 mg/kg
[3] = C57BL/6, mouse, plasma, Po, 5 mg/kg

Row | SMILES | Emax (RORγt) [%] | IC50 (RORγt) [µM] | also measured
1 | CCS(=O)(=O)c1ccc2c(c1)CCN(C=O)C2C(=O)Nc1ccc(C(O)(C(F)(F)F)C(F)(F)F)cc1 (stereo not shown) [Example 19, 6-(Ethylsulfonyl)-2-formyl-N-(4-(1,1,1,3,3,3-hexafluoro-2-hydroxypropan-2-yl)phenyl)-1,2,3,4-tetrahydroisoquinoline-1-carboxamide] | 101 | 0.0147 | 
2 | CCS(=O)(=O)c1ccc2c(c1)CCN(C(C)=O)C2C(=O)Nc1ccc(C(O)(C(F)(F)F)C(F)(F)F)cc1 (single isomer, unassigned) [Example 3, (S)-2-acetyl-6-(ethylsulfonyl)-N-(4-(1,1,1,3,3,3-hexafluoro-2-hydroxypropan-2-yl)phenyl)-1,2,3,4-tetrahydroisoquinoline-1-carboxamide or (R)-2-acetyl-6-(ethylsulfonyl)-N-(4-(1,1,1,3,3,3-hexafluoro-2-hydroxypropan-2-yl)phenyl)-1,2,3,4-tetrahydrosoquinoline-1-carboxamide] |  | 0.681 | Emax % (RORγt): 111.3%
3 | CCS(=O)(=O)c1ccc2c(c1)CCN(C(C)=O)C2C(=O)Nc1ccc(C(F)(C(F)(F)F)C(F)(F)F)cc1 (single isomer, unassigned) [Example 9, (S)-2-acetyl-6-(ethylsulfonyl)-N-(4-(perfluoropropan-2-yl)phenyl)-1,2,3,4-tetrahydroisoquinoline-1-carboxamide or (R)-2-acetyl-6-(ethylsulfonyl)-N-(4-(perfluoropropan-2-yl)phenyl)-1,2,3,4-tetrahydroisoquinoline-1-carboxamide] |  | 0.616 | Emax % (RORγt): 107.1%
4 | CCS(=O)(=O)c1ccc2c(c1)CCN(C(C)=O)C2C(=O)Nc1ccc(C(O)(C(F)(F)F)C(F)(F)F)cc1F (stereo not shown) [Example 10, 2-Acetyl-6-(ethylsulfonyl)-N-(2-fluoro-4-(1,1,1,3,3,3-hexafluoro-2-hydroxypropan-2-yl)phenyl)-1,2,3,4-tetrahydroisoquinoline-1-carboxamide] | 102 | 0.0405 | 
5 | CCS(=O)(=O)c1ccc2c(c1)CCN(C(=O)CCC(=O)O)C2C(=O)Nc1ccc(C(O)(C(F)(F)F)C(F)(F)F)cc1 (stereo not shown) [Example 4, 4-(6-(Ethylsulfonyl)-1-((4-(1,1,1,3,3,3-hexafluoro-2-hydroxypropan-2-yl)phenyl)carbamoyl)-3,4-dihydroisoquinolin-2(1H)-yl)-4-oxobutanoic acid] | 73.8 | 3.05 | 
6 | CCS(=O)(=O)c1ccc2c(c1)CCN(C(C)=O)C2C(=O)Nc1ccc(OC(F)(F)F)cc1 (stereo not shown) [Example 12, 2-Acetyl-6-(ethylsulfonyl)-N-(4-(trifluoromethoxy)phenyl)-1,2,3,4-tetrahydroisoquinoline-1-carboxamide] | 95.7 | 0.29 | 
7 | CC(=O)N1CCc2cc(S(C)(=O)=O)ccc2C1C(=O)Nc1ccc(C(O)(C(F)(F)F)C(F)(F)F)cc1F (stereo not shown) [Example 11, 2-Acetyl-N-(2-fluoro-4-(1,1,1,3,3,3-hexafluoro-2-hydroxypropan-2-yl)phenyl)-6-(methylsulfonyl)-1,2,3,4-tetrahydroisoquinoline-1-carboxamide] | 104 | 0.0913 | 
8 | CCS(=O)(=O)c1ccc2c(c1)CCN(C(=O)C1CC1)C2C(=O)Nc1ccc(C(O)(C(F)(F)F)C(F)(F)F)cc1 (stereo not shown) [Example 14, 2-(Cyclopropanecarbonyl)-6-(ethylsulfonyl)-N-(4-(1,1,1,3,3,3-hexafluoro-2-hydroxypropan-2-yl)phenyl)-1,2,3,4-tetrahydroisoquinoline-1-carboxamide] | 98.8 | 0.0834 | 
9 | CCS(=O)(=O)c1ccc2c(c1)CCN(C(C)=O)C2C(=O)Nc1ccc(C(F)(C(F)(F)F)C(F)(F)F)cc1 (single isomer, unassigned) [Example 8, (R)-2-acetyl-6-(ethylsulfonyl)-N-(4-(perfluoropropan-2-yl)phenyl)-1,2,3,4-tetrahydroisoquinoline-1-carboxamide or (S)-2-acetyl-6-(ethylsulfonyl)-N-(4-(perfluoropropan-2-yl)phenyl)-1,2,3,4-tetrahydroisoquinoline-1-carboxamide] | 99.2 | 0.00378 | 
10 | CCC(=O)N1CCc2cc(S(=O)(=O)CC)ccc2C1C(=O)Nc1ccc(C(O)(C(F)(F)F)C(F)(F)F)cc1 (stereo not shown) [Example 13, 6-(Ethylsulfonyl)-N-(4-(1,1,1,3,3,3-hexafluoro-2-hydroxypropan-2-yl)phenyl)-2-propionyl-1,2,3,4-tetrahydroisoquinoline-1-carboxamide] | 101 | 0.154 | 
11 | CC(=O)N1CCc2cc(S(=O)(=O)CC3CC3)ccc2C1C(=O)Nc1ccc(C(O)(C(F)(F)F)C(F)(F)F)cc1 (stereo not shown) [Example 21, 2-Acetyl-6-((cyclopropylmethyl)sulfonyl)-N-(4-(1,1,1,3,3,3-hexafluoro-2-hydroxypropan-2-yl)phenyl)-1,2,3,4-tetrahydroisoquinoline-1-carboxamide] | 102 | 0.0125 | 
12 | CNS(=O)(=O)c1ccc2c(c1)CCN(C(C)=O)C2C(=O)Nc1ccc(C(O)(C(F)(F)F)C(F)(F)F)cc1 (stereo not shown) [Example 22, 2-Acetyl-N-(4-(1,1,1,3,3,3-hexafluoro-2-hydroxypropan-2-yl)phenyl)-6-(N-methylsulfamoyl)-1,2,3,4-tetrahydroisoquinoline-1-carboxamide] | 102 | 0.0178 | 
13 | CCS(=O)(=O)c1ccc2c(c1)CCN(C(C)=O)C2C(=O)Nc1cc(Cl)c(C2=CCOCC2)c(Cl)c1 (stereo not shown) [Example 18, 2-Acetyl-N-(3,5-dichloro-4-(3,6-dihydro-2H-pyran-4-yl)phenyl)-6-(ethylsulfonyl)-1,2,3,4-tetrahydroisoquinoline-1-carboxamide] | 95.8 | 0.107 | 
14 | CC(=O)N1CCc2cc(S(C)(=O)=O)ccc2C1C(=O)Nc1cc(Cl)c(C2=CCOCC2)c(Cl)c1 (stereo not shown) [Example 17, 2-Acetyl-N-(3,5-dichloro-4-(3,6-dihydro-2H-pyran-4-yl)phenyl)-6-(methylsulfonyl)-1,2,3,4-tetrahydroisoquinoline-1-carboxamide] | 95.9 | 0.0671 | 
15 | CC(=O)N1Cc2cc(S(C)(=O)=O)ccc2[C@@H]1C(=O)Nc1ccc(C(O)(C(F)(F)F)C(F)(F)F)cc1 [AZD-0284, reference compound] |  |  | AUC(0-t) [1, 2]: 1180 ng·h/mL; Cmax [1, 2]: 2480 ng/mL; half-life [1, 2]: 7.75 h; Vd ([1]; C57BL/6, mouse, plasma, IV, 1 mg/kg, read-out: Vss): 6.29 L/kg; bioavailability ([1]; C57BL/6, mouse, plasma, Po 5 mg/kg vs IV 1 mg/kg): 38%; AUC(0-t) [1, 3]: 2780 ng·h/mL; Cmax [1, 3]: 264 ng/mL; half-life [1, 3]: 3.35 h; CL_obs ([1]; IV, 1 mg/kg): 12.6 mL/min/kg
